One compound from ChEMBL document CHEMBL5729353, “Imidazopyridazine and imidazopyridine compounds and uses thereof” (2022) can be followed below.

The experiment deals with T1, Activin receptor type-1 (Homo sapiens, UniProt Q04771).
T1 sequence (Q04771 whole entry): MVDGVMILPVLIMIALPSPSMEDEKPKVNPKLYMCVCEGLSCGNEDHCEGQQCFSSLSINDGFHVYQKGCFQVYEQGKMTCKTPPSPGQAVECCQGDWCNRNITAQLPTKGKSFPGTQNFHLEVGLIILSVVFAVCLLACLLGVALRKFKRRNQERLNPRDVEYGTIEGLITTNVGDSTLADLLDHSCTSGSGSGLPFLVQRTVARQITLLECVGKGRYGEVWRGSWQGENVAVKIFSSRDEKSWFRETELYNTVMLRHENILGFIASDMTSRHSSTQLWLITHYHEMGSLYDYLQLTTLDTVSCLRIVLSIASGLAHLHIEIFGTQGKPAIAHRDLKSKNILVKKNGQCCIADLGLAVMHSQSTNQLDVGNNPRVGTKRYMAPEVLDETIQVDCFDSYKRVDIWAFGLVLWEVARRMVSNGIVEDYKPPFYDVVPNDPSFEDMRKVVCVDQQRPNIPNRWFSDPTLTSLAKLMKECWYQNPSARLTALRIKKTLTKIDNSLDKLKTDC
The experiment is described as follows: The enzymatic assays were conducted in white 384-well polystyrene plates in a final volume of 8 μL. The inhibitors were serially diluted in DMSO and added to the plate wells prior to addition of the other reaction components. […] The final concentration of DMSO in the assay was 1% and the enzyme concentration was 0.5 nM for ALK2. […] The reaction was incubated at 25° C. for 1 hr and read on a PHERAstar FS plate reader (BMG Labtech). IC50 determination was performed by fitting percent control activity versus the log of the inhibitor concentration using the IDBS XLFit and GraphPad Prism 5.0 software.

The structures appear in SMILES notation.

`Cc1nn2c(-c3ccnc4cc(-c5ccncc5)ccc34)cnc2cc1-c1cnn(CC2CCNCC2)c1` showed an IC50 below 1 nM.
